Data from patent EP2292225A1 (priority 1997, dated 1998).

System: Vascular smooth muscle cells (BO54)
Assay: Scratch assay of smooth muscle cell migration
Type: cell-based, baboon
Set-up: key: - = no toxicity; +1 = minimal; +2 = mild; +3 = moderate; +4 = marked toxicity
Conditions: Day 1/3/6/8/10 = r6/r8/r10/r12/r14
Protocol: Scratch assays to determine the extent of smooth muscle cell migration inhibition by cytochalasin B were performed in accordance with the following protocol: • Vascular smooth muscle cells (BO54) were derived from explants of baboon aortic smooth muscle, as described in Example 10. The cells were grown in flat bottom, six well tissue culture plates, which hold about 5 ml of medium. The vascular smooth muscle cells were plated at 200,000 cells/well and placed at 37°C in a humidified 5% CO2 incubator for 18 hours. The wells were then scratched with a sterile portion of a single edge razor blade that was held by clamp or pliers and was brought aseptically into contact with the bottom of the well at a 90° angle. The cells from a small area along the scratch were removed by a sterile cotton tipped applicator while the blade was in contact with the bottom of the well. After incubation, the presence of cells in the "scratched" area is indicative of cell migration across the scratch line.
Briefly, a stock solution of cytochalasin B (Sigma Chemical Co.) in dimethyl sulfoxide (DMSO) at 1 mg/ml was prepared. Test dilutions of cytochalasin B or control medium were added. Each experiment included two sets of plates: A set: Test agent exposure for 1, 3, 6, 8 and 10 days only; and B set: Test agent exposure for 1, 3, 6, 8 and 10 days, followed by a seven day recovery time with control medium. Both sets of plates were fixed (10% formalin in PBS) and stained (0.02% crystal violet) at the end of the timed exposures. Test concentrations for cytochalasin B were 1, 0.1 and 0.01 µg/ml, and a negative medium control was included. Fresh medium and drug were supplied 3 times per week.
In this Table, "M" indicates Migration Grade, wherein - = no migration; +1 = minimal; +2 = mild; +3 = moderate; and +4 = marked (maximum density; limit of cell contact inhibition) migration of vascular smooth muscle cells into the cleared area adjacent to the scratch. In this Table, "T" denotes a morphological Toxicity Grade, wherein - = no toxicity; +1 = minimal; +2 = mild; +3 = moderate; and +4 = marked toxicity. The migration results are expressed as "Grade in the Cleared Area of the Well / Grade in an Undisturbed Region of the Well." The toxicity values represent a grade for all cells in each well.

## C=C1[C@@H](C)[C@H]2[C@H](Cc3ccccc3)NC(=O)[C@]23OC(=O)/C=C/[C@H](O)CCC[C@@H](C)C/C=C/[C@H]3[C@@H]1O [cytochalasin B]
7-day Recovery Post Exposure, 0.01 µg/mL
  morphological Toxicity Grade: -
7-day Recovery Post Exposure, 0.1 µg/mL
  morphological Toxicity Grade: -
Continuous Exposure, 0.1 µg/mL, listed as CY[…]
  morphological Toxicity Grade: -
Continuous Exposure, 1.0 µg/mL, listed as CY[…]
  morphological Toxicity Grade: +4
